{"source": "the supplement of paper PMC10307832"}
{"compound": "CC(O)(CS(=O)(=O)c1ccc(F)cc1)C(=O)Nc1ccc(C#N)c(C(F)(F)F)c1 [Bicalutamide] + CS(=O)(=O)N1CCN(Cc2cc3nc(-c4cccc5[nH]ncc45)nc(N4CCOCC4)c3s2)CC1 [Pictilisib] (partner 1 µM)", "test": "relative viability (nuclei count vs DMSO), 5 days (fraction); higher = more cells survive", "details": "first compound 0.8 µM", "how_it_was_run": "(§1)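 For relative viability, nuclei counts in treated wells were divided by those in vehicle wells. Lung cancer cell lines had been pin-tool dosed in 1536-well plates the day after seeding and cultured for 5 days, then fixed and stained in one step (final 0.05% Triton X-100, 1% formaldehyde, 1 ug/ml Hoechst) and imaged at 4×. Doses were one drug alone or a fixed anchor-drug dose plus five library-drug doses (not always all listed) in √10 steps, and values are duplicate-plate medians.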"}
{"cell line": "HCC-827", "relative viability": 1.1}
{"cell line": "LXF-289", "relative viability": 0.855}
{"cell line": "NCI-H2347", "relative viability": 0.876}
{"cell line": "NCI-H650", "relative viability": 0.951}
{"cell line": "NCI-H1651", "relative viability": 0.686}
{"cell line": "EPLC-272H", "relative viability": 0.329}
{"cell line": "NCI-H23", "relative viability": 0.633}
{"cell line": "NCI-H1792", "relative viability": 0.284}
{"cell line": "NCI-H1355", "relative viability": 0.441}
{"cell line": "NCI-H322M", "relative viability": 0.573}
{"cell line": "NCI-H1437", "relative viability": 0.419}
{"cell line": "NCI-H1755", "relative viability": 0.523}
{"cell line": "NCI-H2085", "relative viability": 0.442}
{"cell line": "HCC-15", "relative viability": 0.951}
{"cell line": "NCI-H1793", "relative viability": 0.415}
{"cell line": "PC-3 [JPC-3]", "relative viability": 0.822}
{"cell line": "EKVX", "relative viability": 0.434}
{"cell line": "LC-2-ad", "relative viability": 0.637}
{"cell line": "NCI-H1944", "relative viability": 0.334}
{"cell line": "NCI-H1975", "relative viability": 0.329}
{"cell line": "ABC-1", "relative viability": 1.06}
{"cell line": "NCI-H358", "relative viability": 0.301}
{"cell line": "RERF-LC-KJ", "relative viability": 0.634}
{"compound": "CC(O)(CS(=O)(=O)c1ccc(F)cc1)C(=O)Nc1ccc(C#N)c(C(F)(F)F)c1 [Bicalutamide] + CS(=O)(=O)N1CCN(Cc2cc3nc(-c4cccc5[nH]ncc45)nc(N4CCOCC4)c3s2)CC1 [Pictilisib] (partner 1 µM)", "test": "relative viability (nuclei count vs DMSO), 5 days (fraction); higher = more cells survive", "details": "first compound 2.53 µM", "how_it_was_run": "as §1"}
{"cell line": "HCC-78", "relative viability": 0.169}
{"cell line": "NCI-H441", "relative viability": 0.426}
{"cell line": "LCLC-97TM1", "relative viability": 0.199}
{"cell line": "A-427", "relative viability": 0.628}
{"cell line": "NCI-H460", "relative viability": 0.356}
{"cell line": "NCI-H727", "relative viability": 0.423}
{"cell line": "NCI-H1734", "relative viability": 0.431}
{"cell line": "NCI-H2405", "relative viability": 0.368}
{"cell line": "NCI-H1395", "relative viability": 0.456}
{"cell line": "201T", "relative viability": 0.674}
{"cell line": "NCI-H1915", "relative viability": 0.775}
{"cell line": "HCC-827", "relative viability": 1.04}
{"cell line": "LXF-289", "relative viability": 0.757}
{"cell line": "NCI-H2347", "relative viability": 0.632}
{"cell line": "NCI-H650", "relative viability": 0.768}
{"cell line": "NCI-H1651", "relative viability": 0.471}
{"cell line": "EPLC-272H", "relative viability": 0.33}
{"cell line": "NCI-H23", "relative viability": 0.378}
{"cell line": "NCI-H1792", "relative viability": 0.245}
{"cell line": "NCI-H1355", "relative viability": 0.485}
{"cell line": "NCI-H322M", "relative viability": 0.55}
{"cell line": "NCI-H1437", "relative viability": 0.451}
{"cell line": "NCI-H1755", "relative viability": 0.279}
{"cell line": "NCI-H2085", "relative viability": 0.39}
{"cell line": "HCC-15", "relative viability": 0.77}
{"cell line": "NCI-H1793", "relative viability": 0.281}
{"cell line": "PC-3 [JPC-3]", "relative viability": 0.723}
{"cell line": "EKVX", "relative viability": 0.455}
{"cell line": "LC-2-ad", "relative viability": 0.502}
{"cell line": "NCI-H1944", "relative viability": 0.327}
{"cell line": "NCI-H1975", "relative viability": 0.233}
{"cell line": "ABC-1", "relative viability": 0.758}
{"cell line": "NCI-H358", "relative viability": 0.303}
{"cell line": "RERF-LC-KJ", "relative viability": 0.613}
{"compound": "C(C(=O)C(=O)O)Br [Bromopyruvate] + O=C(c1cc(Cc2n[nH]c(=O)c3ccccc23)ccc1F)N1CCN(C(=O)C2CC2)CC1 [Olaparib] (partner 8 µM)", "test": "relative viability (nuclei count vs DMSO), 5 days (fraction); higher = more cells survive", "details": "first compound 1 µM", "how_it_was_run": "as §1"}
{"cell line": "HCC-78", "relative viability": 0.762}
{"cell line": "NCI-H441", "relative viability": 0.604}
{"cell line": "LCLC-97TM1", "relative viability": 0.467}
{"cell line": "A-427", "relative viability": 0.664}
{"cell line": "NCI-H460", "relative viability": 0.457}
{"cell line": "NCI-H727", "relative viability": 0.666}
{"cell line": "NCI-H1734", "relative viability": 0.68}
{"cell line": "NCI-H2405", "relative viability": 0.879}
{"cell line": "NCI-H1395", "relative viability": 0.447}
{"cell line": "201T", "relative viability": 0.862}
{"cell line": "NCI-H1915", "relative viability": 0.261}
{"cell line": "HCC-827", "relative viability": 0.757}
{"cell line": "LXF-289", "relative viability": 1.13}
{"cell line": "NCI-H2347", "relative viability": 0.56}
